Data as given in patent publication US7517517B2 (Janssen Pharmaceutica N.V., priority 2002, dated 2009).
Structures can show the parent of a compound that is named as a salt.

Target: T1, rat mGlu1a receptor (Rattus norvegicus, UniProt P23385)
T1 construct: host or cells: CHO-dhfr- cells
Test: [3H]Compound A binding to rat mGlu1a receptor CHO-dhfr− membranes (saturation, kinetics, inhibition)
Conditions: rat mGlu1a receptor CHO-dhfr− membranes

T1 sequence (P23385 19-1199): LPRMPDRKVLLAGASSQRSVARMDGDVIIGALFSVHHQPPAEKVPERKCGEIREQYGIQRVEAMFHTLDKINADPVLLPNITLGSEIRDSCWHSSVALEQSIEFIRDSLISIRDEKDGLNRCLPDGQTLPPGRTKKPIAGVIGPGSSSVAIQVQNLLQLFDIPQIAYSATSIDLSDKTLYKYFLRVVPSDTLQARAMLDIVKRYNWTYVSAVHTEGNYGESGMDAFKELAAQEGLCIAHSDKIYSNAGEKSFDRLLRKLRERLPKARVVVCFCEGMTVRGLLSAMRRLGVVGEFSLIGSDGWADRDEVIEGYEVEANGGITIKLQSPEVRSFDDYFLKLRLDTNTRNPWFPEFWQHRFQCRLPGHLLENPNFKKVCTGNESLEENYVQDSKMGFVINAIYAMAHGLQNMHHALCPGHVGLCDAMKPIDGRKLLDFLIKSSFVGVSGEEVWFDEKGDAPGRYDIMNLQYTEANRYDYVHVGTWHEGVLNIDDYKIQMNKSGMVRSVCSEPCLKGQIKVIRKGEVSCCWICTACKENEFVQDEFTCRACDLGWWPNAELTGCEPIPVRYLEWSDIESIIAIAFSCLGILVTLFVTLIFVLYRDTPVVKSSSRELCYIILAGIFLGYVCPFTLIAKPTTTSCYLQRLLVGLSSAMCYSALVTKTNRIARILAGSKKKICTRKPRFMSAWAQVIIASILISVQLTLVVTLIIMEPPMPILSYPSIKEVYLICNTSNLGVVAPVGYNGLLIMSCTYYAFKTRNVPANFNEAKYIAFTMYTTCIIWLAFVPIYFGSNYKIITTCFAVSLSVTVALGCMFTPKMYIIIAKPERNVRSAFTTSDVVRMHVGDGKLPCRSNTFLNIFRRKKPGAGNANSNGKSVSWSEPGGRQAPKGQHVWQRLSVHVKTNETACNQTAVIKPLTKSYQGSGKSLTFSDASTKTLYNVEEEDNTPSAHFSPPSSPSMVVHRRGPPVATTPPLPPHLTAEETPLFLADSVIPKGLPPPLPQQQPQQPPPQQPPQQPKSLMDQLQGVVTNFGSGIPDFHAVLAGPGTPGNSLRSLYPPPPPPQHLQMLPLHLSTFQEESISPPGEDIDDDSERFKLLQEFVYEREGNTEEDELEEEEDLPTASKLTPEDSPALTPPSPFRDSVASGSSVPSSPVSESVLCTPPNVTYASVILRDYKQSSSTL

inhibition of [3H]Compound A binding (in words)	Compound
did not inhibit	N[C@H](C(=O)O)c1ccc(C(=O)O)c(O)c1 [(S)-4C-3HPG, reference compound]

Test system: not given
Test: not given
Conditions: not given

melting point [°C]	Compound
248	CCc1cc2cc(-c3cc4c(o3)CCCC4)ccc2nc1C (as salt: HCl) [Compound 526]
82	CCc1cc2cc(C(=O)CC(C)C)ccc2nc1Cl [Compound 2]
145	CCc1cc2cc(C(=O)C3Cc4ccccc4C3)ccc2nc1Cl [Compound 3]
123	CCc1cc2cc(C(=O)[C@H]3CC[C@@H](OC)CC3)ccc2nc1Cl [Compound 4]
108	CCc1cc2cc(C(=O)C3CCC(OC)CC3)ccc2nc1C(C)=O (centres unmarked) [Compound 6]
226	CCc1cc2cc(C(=O)C3CCC(OC)CC3)ccc2[nH]c1=O (centres unmarked) [Compound 9]
115	CCc1cc2cc(C(=O)[C@H]3CC[C@@H](OC)CC3)ccc2nc1NCCOC [Compound 10]
92	CCc1cc2cc(C(=O)C3CCC(OC)CC3)ccc2nc1F (centres unmarked) [Compound 19]
114	CCc1cc2cc(C(=O)[C@H]3CC[C@H](OC)CC3)ccc2nc1F [Compound 20]
110	CCc1cc2cc(C(=O)[C@H]3CC[C@@H](OC)CC3)ccc2nc1I [Compound 21]
138	CCc1cc2cc(C(=O)[C@H]3CC[C@@H](OC)CC3)ccc2nc1C#N [Compound 22]
88	CCc1cnc2ccc(C(=O)C3CCC(OC)CC3)cc2c1 (centres unmarked) [Compound 25]
108	C=Cc1nc2ccc(C(=O)C3CCC(OC)CC3)cc2cc1CC (centres unmarked) [Compound 28]
112	CCc1cc2cc(C(=O)C3CCC(OC)CC3)ccc2nc1-c1ccccc1 (centres unmarked) [Compound 29]
142	CCc1cc2cc(C(=O)C3CCC(OC)CC3)ccc2nc1-c1cccs1 (centres unmarked) [Compound 30]
113	CCc1cc2cc(C(=O)C3CCC(OC)CC3)ccc2nc1-c1ccsc1 (centres unmarked) [Compound 31]
256.1	Cc1cc2cc(C(=O)C3CCCCC3)ccc2[nH]c1=O [Compound 50, 6-(cyclohexylcarbonyl)-3-methyl-2(1H)-quinolinone]
110	CCc1cc2cc(/C(=N\N)C3CCC(OC)CC3)ccc2nc1OC (centres unmarked) [Compound 53]
136	CCOC(=O)c1cc2cc(C(=O)Cc3ccccc3)ccc2nc1C [Compound 306]
140	CCc1cc2cc(/C=C/c3ccccc3)ccc2nc1C [Compound 471]
185	c1ccc2c(-c3ccc4nc5c(cc4c3)CCS5)noc2c1 [Compound 514]
134	CCc1cc2cc(-c3cc4ccccc4o3)ccc2nc1C [Compound 515]

Target: T2, cloned rat mGlu1 receptor (Rattus norvegicus, UniProt P23385)
T2 construct: expressed in transfected cells; host or cells: CHO cells
T2 sequence (P23385 19-1199): as above
Test: Signal transduction at the cloned rat mGlu1 receptor in CHO cells (glutamate-induced Ca2+ rise, FLIPR)
Format: cell-based
Conditions: 50% inhibition of the glutamate-induced intracellular Ca2+ rise; CHO cells, FLIPR

IC50 [nM]	Compound
5.37	COC1CCC(F)(C(=O)c2ccc3nc4c(cc3c2)CCCO4)CC1 (centres unmarked) [Compound 488]
9.44	O=C(CC1CC2CCC1C2)c1ccc2nc3c(cc2c1)CCCO3 (centres unmarked) [Compound 497]
10	O=C(Cc1ccccc1F)c1ccc2nc3c(cc2c1)CCCS3 [Compound 499]
5.37	Cc1cc2nc3c(cc2cc1C(=O)Cc1ccccc1)CCCO3 [Compound 504]
3.31	Cc1cc2cc3c(cc2cc1C(=O)Cc1ccccc1)CCCS3 [Compound 506]

Same assay, conditions: inhibition of glutamate-induced intracellular Ca2+ rise, CHO cells expressing mGlu1 receptor; compounds with pIC50 between 7 and 8

IC50 [nM]	Compound
13.8	O=C(Cc1ccc(F)cc1)c1ccc2nc3c(cc2c1)CCCS3 [Compound 483]
28.8	O=C(Cc1cccc(F)c1)c1ccc2nc3c(cc2c1)CCCS3 [Compound 484]
29.5	CC1(C(=O)c2ccc3nc4c(cc3c2)CCCO4)CC2CCC1C2 (centres unmarked) [Compound 494]
66.1	O=C(c1ccc2nc3c(cc2c1)CCS3)C1(F)CC2CCC1C2 (centres unmarked) [Compound 496]
16.6	O=C(Cc1ccc(Br)cc1)c1ccc2nc3c(cc2c1)CCCO3 [Compound 498]
74.1	O=C(c1ccc2nc3c(cc2c1)CCCS3)C1COc2ccccc2O1 (centres unmarked) [Compound 512]
58.9	CCc1cc2cc(C(=O)Cc3ccccc3)ccc2nc1F [Compound 527]
